Converted amounts (≈) assume the structure as drawn. Counter-ions that a name gives are not always drawn. Non-standard residues stand in square brackets, D forms with d. Residues, ends and D or L forms follow the SMILES beside them. *: point of attachment. Tetradecanoyl(3S-OH) = CCCCCCCCCCC[C@H](O)CC(=O)*
What was measured:
[1] = tested on: S. aureus ATCC 29213; experiment: microbe, parasite or virus in culture; conditions: Staphylococcus aureus, ATCC29213, read-out: Inhibition zone diameter
Description: Each agar well was loaded with 70 µL of a peptide solution (256 µg/mL).
For the agar diffusion assay, the bacterial strain was cultured overnight at 37 °C in the previously described media. Cultures were then inoculated at 1% (v/v) in a soft agar medium containing 1.5% (w/v) agar. Wells were created in the inoculated agar plates, and 70 µL of the humimycin analog solution (256 µg/mL) was added to each well. Kanamycin sulfate (256 µg/mL) and 5% dimethyl sulfoxide (DMSO) in water were included as positive and negative control, respectively.

[2] = tested on: Staphylococcus aureus ATCC 29213; assay type: cell-based
Description: (§1) Analogs were serially diluted two-fold from stock solutions.

[3] = tested on: Staphylococcus aureus ATCC 43300; assay type: cell-based; conditions: ATCC 43300
Description: as §1

[4] = tested on: Bacillus subtilis ATCC 23857; experiment: MIC, broth microdilution; assay type: cell-based; conditions: 37 °C, 18–20 h, triplicate
Description: as §1

[5] = tested on: Escherichia coli ATCC 25922; experiment: MIC, broth microdilution; assay type: cell-based; conditions: 37 °C, 18–20 h, triplicate
Description: as §1

[6] = tested on: Pseudomonas aeruginosa ATCC 27853; experiment: MIC, broth microdilution; assay type: cell-based; conditions: 37 °C, 18–20 h, triplicate
Description: as §1

[7] = tested on: Salmonella enterica ATCC 14028; experiment: MIC, broth microdilution; assay type: cell-based; conditions: 37 °C, 18–20 h, triplicate
Description: as §1

[8] = tested on: Staphylococcus and Streptococcus species; conditions: stereochemistry of the β-hydroxyl group; cited from earlier work
Description: Among promising AMLPs of bacterial origin, humimycins show very attractive activities against S. aureus. Humimycins A 1 and B 2 are composed of a heptapeptide bearing an N-terminal β-hydroxy myristoyl lipid chain (Table 1). […] A novel approach was employed to discover humimycins by combining bioinformatics and chemical synthesis. Rather than depending on bacterial cultures to discover and produce ... || β-Hydroxymyristic acid is specifically incorporated into lipopeptides like surfactin by certain enzymes in Bacillus species. […] The presence of a hydroxyl group imparts some amphiphilicity, aiding interaction with bacterial mem ...

Compound	zone of inhibition at 256 µg/mL [1]	MIC [2]	MIC [3]	MIC [4]	MIC [5]	MIC [6]	MIC [7]	potency of (S)-isomer relative to (R)-isomer [8]
NC[C@H]1O[C@H](O[C@H]2[C@H](O)[C@@H](O[C@H]3O[C@H](CO)[C@@H](O)[C@H](N)[C@H]3O)[C@H](N)C[C@@H]2N)[C@H](O)[C@@H](O)[C@@H]1O [Kanamycin sulfate]	24 mm	–	–	–	–	–	–	–
CCCCCCCCCCC[C@H](O)CC(=O)N[C@@H](Cc1ccc(O)cc1)C(=O)N[C@@H](CO)C(=O)N[C@H](Cc1ccc(O)cc1)C(=O)N[C@@H](Cc1ccccc1)C(=O)N[C@@H](C(=O)N[C@H](C(=O)N[C@H](C(=O)O)C(C)C)C(C)C)[C@H](C)O [compound 1, reference compound] ({Tetradecanoyl(3S-OH)}-YS[dY]F[dT]VV-OH; N-terminus and C-terminus assumed)	–	8 µg/mL (≈ 7.24 µM)	16 µg/mL (≈ 14.5 µM)	- ^b (No antimicrobial activity was detected up to 256 µg/mL)	- (No antimicrobial activity was detected up to 256 µg/mL)	- (No antimicrobial activity was detected up to 256 µg/mL)	- (No antimicrobial activity was detected up to 256 µg/mL)	four-fold more potent
